Results on eleven molecules are retold here after US11104664B2, “4,5,6-trisubstituted indazole derivatives, and preparation method and pharmaceutical use thereof” (SHANGHAI HAIYAN PHARMACEUTICAL TECHNOLOGY CO., LTD., priority 2016, dated 2021).

pIC50: −log10 of the molar value. Where only a bound is given, the exact number is not on record here.

In experiment [1] the target is Recombinant PRC2 (EZH2-Y641F) (Homo sapiens (Human), UniProt Q15910, Y641F). As to the kind of experiment: In vitro methyltransferase activity assay (LANCE Ultra). The experiment is classed as biochemical. Particulars: 2.5 μM SAM/250 nM H3(1-50)K27me1, 3 hours, room temperature. Here is the method:
Recombinant PRC2 (EZH2-Y641F) was purchased from Active motif, S-adenosyl-methionine (SAM) and Poly-L-lysine (PLL) were purchased from Sigma-Aldrich, and H3(1-50)K27me1 peptide was purchased from Cisbio. LANCEUltrasystem (Perkinelmer) was used for detection system. In the enzyme activity test, compounds to be tested were diluted by 8 gradient points in a ratio of 1:3, and added into each well in a reaction plate, and 100 ng recombinase was added, followed by a buffer [20 mM Tris pH8.5, 2 mM MgCl2, 0.01% Tween-20, 1 mM TCEP] containing 2.5 μM SAM/250 nM H3 (1-50)K27me1 premixtures. Enzymatic reaction thus began at room temperature. After reacted for 3 hours, a detection solution premixed with PLL, detection antibody and Ulight was added, and reacted for 1 hour at room temperature. The fluorescence value was then read on a Tecan infinite pro. IC50 was calculated by fitting in a four-factor model in the XLfit software.

The test system of a further experiment is Pfeiffer cells. The experiment in a line: Cell proliferation assay (Cell counting kit-8, 6 days). In kind it is cell-based. The conditions noted are these: Pfeiffer (CRL-2632), 6 days culture. Here is the method:
The used cell lines Pfeiffer (CRL-2632), suDHL-6 (CRL-2959) and suDHL-10 (CRL-2963) were obtained from American Type Culture Collection (ATCC). All cell lines were cultured in RPMI-1640 medium (Gibco) containing 10% fetal bovine serum (Gibco). The cultured cells were harvested by centrifugation and the cell density was determined using a CounterStar cell counter. Appropriate number of cells were plated in a 96-well culture plate and incubated overnight. Compounds to be tested were diluted by 8 gradient points in a ratio of 1:3 and added into corresponding wells. After continuing to culture for 6 days, the number of viable cells was measured with Cell counting kit-8, and the absorbance value was read on Tecan infinite pro. The IC50 was calculated by fitting in a four-parameter model in the XLfit software.

Chain of Recombinant PRC2 (EZH2-Y641F) (Q15910 whole entry Y641F): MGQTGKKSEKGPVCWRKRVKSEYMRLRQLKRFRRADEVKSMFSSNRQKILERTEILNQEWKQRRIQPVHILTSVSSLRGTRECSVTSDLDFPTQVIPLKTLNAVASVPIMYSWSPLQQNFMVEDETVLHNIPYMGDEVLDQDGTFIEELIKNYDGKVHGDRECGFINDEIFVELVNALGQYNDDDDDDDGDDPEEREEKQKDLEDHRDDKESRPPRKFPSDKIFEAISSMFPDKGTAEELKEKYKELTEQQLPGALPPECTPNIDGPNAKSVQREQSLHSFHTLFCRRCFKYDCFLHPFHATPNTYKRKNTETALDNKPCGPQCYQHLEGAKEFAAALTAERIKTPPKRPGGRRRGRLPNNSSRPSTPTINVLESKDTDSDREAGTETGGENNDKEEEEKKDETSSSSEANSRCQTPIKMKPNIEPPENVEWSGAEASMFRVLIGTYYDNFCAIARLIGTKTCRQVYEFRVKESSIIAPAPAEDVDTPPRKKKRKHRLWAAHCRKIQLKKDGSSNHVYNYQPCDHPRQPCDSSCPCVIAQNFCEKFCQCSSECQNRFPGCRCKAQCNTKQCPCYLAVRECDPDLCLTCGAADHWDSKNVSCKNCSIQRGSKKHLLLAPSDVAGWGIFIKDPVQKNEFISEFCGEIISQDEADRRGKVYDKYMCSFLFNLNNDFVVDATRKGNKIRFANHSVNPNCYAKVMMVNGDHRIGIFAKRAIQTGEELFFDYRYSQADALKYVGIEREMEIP
Chain of Recombinant PRC2 (EZH2-Y641F) (O75530 whole entry partner): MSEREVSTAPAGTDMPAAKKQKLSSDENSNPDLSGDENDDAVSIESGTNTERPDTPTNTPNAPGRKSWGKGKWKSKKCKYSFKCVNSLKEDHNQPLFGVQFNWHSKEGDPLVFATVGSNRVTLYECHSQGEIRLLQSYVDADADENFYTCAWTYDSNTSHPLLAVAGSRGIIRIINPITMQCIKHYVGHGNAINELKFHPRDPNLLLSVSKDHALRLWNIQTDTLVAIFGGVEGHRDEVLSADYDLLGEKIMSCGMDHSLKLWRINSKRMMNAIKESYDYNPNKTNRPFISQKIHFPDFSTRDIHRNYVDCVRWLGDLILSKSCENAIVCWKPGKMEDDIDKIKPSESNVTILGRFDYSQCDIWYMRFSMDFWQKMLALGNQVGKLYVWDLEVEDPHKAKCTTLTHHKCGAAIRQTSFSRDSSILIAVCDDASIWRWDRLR
Chain of Recombinant PRC2 (EZH2-Y641F) (Q15022 whole entry partner): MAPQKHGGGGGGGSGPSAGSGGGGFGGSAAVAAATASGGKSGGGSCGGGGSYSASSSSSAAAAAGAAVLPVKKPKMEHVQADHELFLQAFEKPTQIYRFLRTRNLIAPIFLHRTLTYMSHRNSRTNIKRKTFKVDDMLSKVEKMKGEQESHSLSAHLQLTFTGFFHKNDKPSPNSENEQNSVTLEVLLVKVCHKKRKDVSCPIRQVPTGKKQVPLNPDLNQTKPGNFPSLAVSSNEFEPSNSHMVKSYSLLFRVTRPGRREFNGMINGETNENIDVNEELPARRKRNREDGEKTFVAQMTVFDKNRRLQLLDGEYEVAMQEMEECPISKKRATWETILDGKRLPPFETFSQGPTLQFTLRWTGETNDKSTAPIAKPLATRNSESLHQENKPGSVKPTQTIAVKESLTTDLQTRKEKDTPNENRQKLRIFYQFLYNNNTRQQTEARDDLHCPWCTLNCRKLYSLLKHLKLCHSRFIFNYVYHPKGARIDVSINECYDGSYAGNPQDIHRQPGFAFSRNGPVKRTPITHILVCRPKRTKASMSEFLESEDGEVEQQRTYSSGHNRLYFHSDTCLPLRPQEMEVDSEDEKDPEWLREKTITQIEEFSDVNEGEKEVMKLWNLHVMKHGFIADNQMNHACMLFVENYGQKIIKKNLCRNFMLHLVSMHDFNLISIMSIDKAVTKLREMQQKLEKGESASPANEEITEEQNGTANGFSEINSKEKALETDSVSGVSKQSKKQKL
Chain of Recombinant PRC2 (EZH2-Y641F) (Q09028 whole entry partner): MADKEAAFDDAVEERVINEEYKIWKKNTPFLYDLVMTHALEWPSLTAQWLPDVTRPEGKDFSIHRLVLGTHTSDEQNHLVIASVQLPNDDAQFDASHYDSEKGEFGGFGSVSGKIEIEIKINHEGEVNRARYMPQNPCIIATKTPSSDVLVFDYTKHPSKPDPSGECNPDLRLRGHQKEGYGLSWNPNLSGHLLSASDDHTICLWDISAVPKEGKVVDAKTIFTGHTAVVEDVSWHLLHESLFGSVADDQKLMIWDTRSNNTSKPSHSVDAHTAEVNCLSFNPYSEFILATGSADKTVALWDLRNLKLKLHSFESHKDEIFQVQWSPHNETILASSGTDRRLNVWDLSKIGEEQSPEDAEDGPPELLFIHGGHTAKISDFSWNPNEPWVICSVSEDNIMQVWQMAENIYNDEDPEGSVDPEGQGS
Chain of Recombinant PRC2 (EZH2-Y641F) (Q6ZN18 whole entry partner): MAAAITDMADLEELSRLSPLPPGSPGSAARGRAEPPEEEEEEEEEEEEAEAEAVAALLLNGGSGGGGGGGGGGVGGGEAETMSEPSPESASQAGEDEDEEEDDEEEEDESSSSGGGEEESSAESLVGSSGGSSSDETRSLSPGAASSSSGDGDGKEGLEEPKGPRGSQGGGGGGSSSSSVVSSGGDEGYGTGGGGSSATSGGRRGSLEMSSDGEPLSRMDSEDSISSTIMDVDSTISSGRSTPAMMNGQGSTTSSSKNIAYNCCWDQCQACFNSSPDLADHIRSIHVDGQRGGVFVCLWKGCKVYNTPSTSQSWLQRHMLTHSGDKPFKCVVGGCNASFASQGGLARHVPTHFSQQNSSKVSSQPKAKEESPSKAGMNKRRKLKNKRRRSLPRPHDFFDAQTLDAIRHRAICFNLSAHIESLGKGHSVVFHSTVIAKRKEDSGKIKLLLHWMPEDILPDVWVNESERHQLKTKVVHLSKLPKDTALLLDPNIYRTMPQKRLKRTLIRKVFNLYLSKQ

For the molecule `CCN(c1c(C)c(C(=O)NCc2c(C)cc(C)[nH]c2=O)cc2c1cnn2C)C1CCC(N2CC(OCC(F)(F)F)C2)CC1` (stereo not shown) [P-37], the pIC50 – broadly, −log10 of the IC50, conventionally taken in molar units – in experiment [1] was 7.92; with Pfeiffer cells (Homo sapiens, 144 h), 6.53.

With `CCc1c(C(=O)NCc2c(OC)cc(C)[nH]c2=O)cc2c(cnn2C)c1N(C)[C@H]1CC[C@H](N(C)CCOC)CC1` [P-21, 5-ethyl-4-(methyl((1R, 4R)-4-((2-methoxyethyl) (methyl)amino)cyclohexyl)amino)-N-((4-methoxy-6-methyl-2-oxo-1,2-dihydropyridin-3-yl)methyl)-1-methyl-1H-indazole-6-carboxamide], the figures for the pIC50 (in experiment [1]; in the experiment with Pfeiffer cells) were 7.85 and 7.49, respectively.

Take `CCc1c(C(=O)NCc2c(C)cc(C)[nH]c2=O)cc2c(cnn2C)c1N(CC)C1CCC(N2CCN(C)CC2)CC1` (stereo not shown) [P-30]: the pIC50 in experiment [1] was 7.34; in the experiment on Pfeiffer cells (Homo sapiens, 144 h), 6.70.

Consider `CCN(c1cc(C(=O)NCc2c(C)cc(C)[nH]c2=O)c(C)c2c1cnn2C)C1CCOCC1` [D1, N-((4,6-dimethyl-2-oxo-1,2-dihydropyridin-3-yl)methyl)-4-(ethyl(tetrahydro-2H-pyran-4-yl)amino)-1,7-dimethyl-1H-indazole-6-carboxamide, reference compound], for which the pIC50 in experiment [1] was less than 5.00; in the experiment with Pfeiffer cells (Homo sapiens, 144 h), less than 5.00.

On to `CCc1c(C(=O)NCc2c(C)cc(C)[nH]c2=O)cc2c(cnn2C)c1N(CC)C1CCC(NC(F)(F)F)CC1` (stereo not shown) [P-25], for which the pIC50 in experiment [1] is 7.34; in the experiment with Pfeiffer cells (Homo sapiens, 144 h), 6.56.

Take `CCN(c1c(C)c(C(=O)NCc2c(OC)cc(C)[nH]c2=O)cc2c1cnn2C)C1CCOCC1` [P-1, 4-(ethyl (tetrahydro-2H-pyran-4-yl)amino)-N-((4-methoxy-6-methyl-2-oxo-1,2-dihydropyridin-3-yl)methyl)-1,5-dimethyl-1H-indazole-6-carboxamide]: the pIC50 in experiment [1] is 7.60; in the experiment on Pfeiffer cells (Homo sapiens, 144 h), 7.03.

On to `CCc1c(C(=O)NCc2c(C)cc(C)[nH]c2=O)cc2c(cnn2C)c1N(CC)C1CCC(N2CCNCC2)CC1` (stereo not shown) [P-29], for which the negative logarithm of the IC50 (pIC50) was 7.47 in experiment [1] and 6.72 in the experiment on Pfeiffer cells (Homo sapiens, 144 h).

For `CCN(c1c(C)c(C(=O)NCc2c(OC)cc(C)[nH]c2=O)cc2c1cnn2C)C1CCC(N(C)CCOC)CC1` (stereo not shown) [P-15, 4-(ethyl(4-((2-methoxyethyl) (methyl)amino)cyclohexyl)amino)-N-((4-methoxy-6-methyl-2-oxo-1,2-dihydropyridin-3-yl)methyl)-1,5-dimethyl-1H-indazole-6-carb oxamide], the pIC50 is 8.15 in experiment [1] and 7.12 in the experiment on Pfeiffer cells (Homo sapiens, 144 h).

For the molecule `CCN(c1c(C)c(C(=O)NCc2c(C)cc(C)[nH]c2=O)cc2c1cnn2C)C1CCC(N(C)CCN(C)C)CC1` (stereo not shown) [P-34], the pIC50 in experiment [1] is 7.59; with Pfeiffer cells (Homo sapiens, 144 h) it was 6.71.

With `CCN(c1c(C)c(C(=O)NCc2c(C)cc(C)[nH]c2=O)cc2c1cnn2C)C1CCC(N(C)CC(F)(F)F)CC1` (stereo not shown) [P-44, N-((4,6-dimethyl-2-oxo-1,2-dihydropyridin-3-yl)methyl)-4-(ethyl(4-(methyl(2,2,2-trifluoroethyl)amino)cyclohexyl)amino)-1,5-dimethyl-1H-indazole-6-carboxamide], the pIC50 in experiment [1] is 7.22; with Pfeiffer cells (Homo sapiens, 144 h), 6.52.

For `CCN(c1c(C)c(C(=O)NCc2c(C)cc(C)[nH]c2=O)cc2c1cnn2C)C1CCC(N(C)CCOC)CC1` (stereo not shown) [P-9, N-((4,6-dimethyl-2-oxo-1,2-dihydropyridin-3-yl)methyl)-4-(ethyl (4-((2-methoxyethyl)(methyl)amino)cyclohexyl)amino)-1,5-dimethyl-1H-indazole-6-carboxamide], the pIC50 in experiment [1] is 8.05; in the experiment with Pfeiffer cells (Homo sapiens, 144 h), 7.49.
